The subject of this experiment is harmaline-induced tremors. Put plainly: Harmaline-induced tremors in rats. Format: in vivo, Male Sprague-Dawley rats. The following applies: for Intensity of tremors after harmaline administration (score), Mean ± S.E.M.: scale 0 to 4. How it is done:
Male Sprague-Dawley rats (Charles River Laboratories, France) were used. During the acclimatization period, animals were housed 2 per cage, in Makrolon type III cages, in the animal room (temperature: 20±2° C., humidity: minimum 45%, air changes: >12 per hour, light/dark cycle of 12 h/12 h [on at 7:00 A.M.]). Animals were allowed a minimum of 5 days period before experiment for acclimatization.
Harmaline HCl (Sigma) was diluted in saline and injected at 20 mg/kg, i.p. The reference compound, propanolol was injected i.p. at 20 mg/kg, 30 min before harmaline administration. SPM 927 was given i.p. at 3, 10 and 30 mg/kg, 30 min before harmaline administration.
The following parameters were assessed by an observer blind to the treatment of the animals. • Intensity: from 0 to 4 (0: no tremor, 1: mild tremor, 2: moderate intermittent tremor, 3: moderate persistent tremor, 4: pronounced severe tremor). Intensity will be scored every 30 min and for a total period of 120 min after harmaline administration. • Latency of onset • Total duration of tremor (max observation time: 120 min) • % rat displaying tremor

Molecules are shown by their SMILES.

On to `CC(C)NCC(O)COc1cccc2ccccc12` (stereo not shown) [Propranolol, reference compound], for which the “Intensity of tremors after harmaline administration (score), Mean ± S.E.M.” value (shortened to “Intensity of tremors … Mean ± S.E.M.”) is, setting by setting: (20 mg/kg i.p. 30 min before harmaline (20 mg/kg i.p.), +30 min) 1.6 ± 0.2 score; (20 mg/kg i.p. 30 min before harmaline (20 mg/kg i.p.), +60 min) 2.3 ± 0.3 score; (20 mg/kg i.p. 30 min before harmaline (20 mg/kg i.p.), +90 min) 1.6 ± 0.3 score; (20 mg/kg i.p. 30 min before harmaline (20 mg/kg i.p.), +120 min) 1.4 ± 0.3 score. The “intensity of tremors (in words)” value (20 mg/kg, each time-point of observation) is on record as “reduced the intensity of tremors in a statistically significant manner”.
Regarding `COC[C@@H](NC(C)=O)C(=O)NCc1ccccc1` [SPM 927, (R)-2-acetamide-N-benzyl-3-methoxypropionamide], the “Intensity of tremors … Mean ± S.E.M.” value is, setting by setting: (3 mg/kg i.p. 30 min before harmaline (20 mg/kg i.p.), +30 min) 2.0 ± 0.4 score; (3 mg/kg i.p. 30 min before harmaline (20 mg/kg i.p.), +60 min) 2.0 ± 0.3 score; (3 mg/kg i.p. 30 min before harmaline (20 mg/kg i.p.), +90 min) 2.1 ± 0.4 score; (3 mg/kg i.p. 30 min before harmaline (20 mg/kg i.p.), +120 min) 1.8 ± 0.4 score; (10 mg/kg i.p. 30 min before harmaline (20 mg/kg i.p.), +30 min) 2.0 ± 0.2 score; (10 mg/kg i.p. 30 min before harmaline (20 mg/kg i.p.), +60 min) 1.1 ± 0.3 score. For the same molecule, the “Intensity of tremors … Mean ± S.E.M.” value is reported as 2.2 ± 0.4 score (10 mg/kg i.p. 30 min before harmaline (20 mg/kg i.p.), +90 min); 1.3 ± 0.3 score (10 mg/kg i.p. 30 min before harmaline (20 mg/kg i.p.), +120 min); 0.9 ± 0.4 score (30 mg/kg i.p. 30 min before harmaline (20 mg/kg i.p.), +30 min); 1.1 ± 0.3 score (30 mg/kg i.p. 30 min before harmaline (20 mg/kg i.p.), +60 min); 1.4 ± 0.3 score (30 mg/kg i.p. 30 min before harmaline (20 mg/kg i.p.), +90 min); 1.2 ± 0.2 score (30 mg/kg i.p. 30 min before harmaline (20 mg/kg i.p.), +120 min). Under “given at 3, 10 and 30 mg/kg”, the “intensity of harmaline-induced tremors (in words)” value is reported as “reduced the intensity of harmaline-induced tremors in a dose dependent manner”. Further, the “maximal efficacy on tremor intensity compared with propranolol (in words)” value (highest dose tested (30 mg/kg) versus propranolol 20 mg/kg) is “higher than that of the positive reference compound propranolol”. Besides, the “intensity of harmaline-induced tremor (in words)” value (rats, summary statement) is given as “reduced”. The “latency of tremor onset following harmaline injection (in words)” value (rats, summary statement) is “markedly increased”. Where the note is “rats, summary statement”, the “total duration of harmaline-induced tremor (in words)” value is listed as “reduced”.

The values are drawn from patent US7427601B2, “Method for treating tremor” (Schwarz Pharma AG, priority 2004, dated 2008).
